Measurements reported in patent US11840531B2, “CDK8/19 inhibitors” (JOINT STOCK COMPANY “BIOCAD”, priority 2018, dated 2023).

How the values were obtained:
[1] = Enzyme stability in human liver S9 fractions (Phase II); assay type: in vitro ADME; conditions: pH 7.4; 0.5 mg/mL pooled human liver S9 fractions, 10 μM compound, 37° C.; read-out: Enzyme stability Liver S9 fraction CLint
Method: Measuring of enzyme stability of the present compounds enabled estimation of their stability towards the action of Phase II biotransformation enzymes.
Enzyme degradation rate was measured by incubating the reaction mixture in a dry block thermostat at 37° C., said reaction mixture comprising 0.5 mg/mL of pooled human liver S9 fractions (XenoTech, USA, cat #H0610), 10 μM compound, 2 mM β-nicotinamide adenine dinucleotide (Carbosynth, UK, cat #NN10871) and 4 mM magnesium chloride in 0, 1 M sodium-phosphate buffer, pH=7, 4. The reaction was quenched with acetonitrile (100 μL of acetonitrile/100 μL of the reaction mixture). After quenching, the samples were centrifuged at 10000 rpm for 10 minutes. Supernatant fluid was tested by chromatographic technique using Agilent1200 (Agilent, USA). Chromatographic analysis was performed in a gradient elution regime with a flow rate of 1 mL/min A graph of the logarithm of substance's peak area as a function of time was made. The dependent factor of the line corresponded to the elimination rate constant K based on which the drug's half-life T½ and degradation rate CLint were calculated:
Based on the data obtained, candidates' enzyme stability in human liver S9 fractions was determined.

CDK8/Cyclin C = CDK8/Cyclin C (Homo sapiens (Human), UniProt P49336); experiment: LanthaScreen binding to recombinant CDK8/Cyclin C; conditions: TR-FRET, Tracer 236 10 nM, CDK8/Cyclin C 5 nM
Method: Capability of compounds of the present invention to bind to CDK8 protein was detected using LanthaScreen (ThermoFisher) assay. We detected FRET signal proportional to the amount of CDK8-bound fluorescently-labeled ligand (Tracer 236) that competes with inhibitor for ATP binding site. We carried out the measurements in a 15 μl reaction volume using a 384-well plate (Corning, #CLS4513). Enzyme CDK8/Cyclin C (ThermoFisher, #PR7261B) was mixed with antibodies Anti-His-tag-Biotin (ThermoFisher, #PV6090), Streptavidin-Eu (ThermoFisher, #PV6025), the resulting mixture was added to plate wells (5 MKπ/well). Final concentrations of substances were as follows: CDK8/Cyclin C—5 nM, Streptavidin-Eu—3 nM, Anti-His-tag-Biotin—3 nM. Staurosporine (S4400, Sigma) was used as a reference inhibitor, and 0.1% solution of dimethyl sulphoxide (DMSO) in reaction buffer was used as a blank, the reaction buffer comprised 250 mM HEPES (pH 7.5), 50 mM MgCl2, 5 mM EGTA, and 0.05% Brij-35.
The inhibitors and controls in question were added to corresponding wells (5 μl/well). The plate was incubated at room temperature for 20 minutes. After incubating, 5 μl/well of tracer solution Alexa Fluor-647 (Kinase Tracer 236, ThermoFisher, #PV5592)) was added to the wells. Final concentration of tracer was 10 nM. Reaction buffer, instead of tracer solution, was used as a negative control. The plate was incubated for 40 minutes at 25° C., TR-FRET signal was then measured according to the manufacturer's guidelines on SPARK20 plate reader (Tecan, Switzerland), and the value was converted to the amount of kinase-bound tracer. IC50 values were calculated using SparkControl Magellan 1.2 software (Tecan, Switzerland) approximating experimental points by four-parameter logistic model with the optimization by Levenberg-Marquardt (Table 5).

MV4-11 cells = experiment: Antiproliferative activity, MV4-11 cells (AlamarBlue); assay type: cell-based; conditions: Homo sapiens, 120 h incubation, read-out: MV-4-11 IC50
Method: Antiproliferative activity of CDK8 inhibitors according to the present invention was measured in a cell-based test on continuous cell cultures MV4-11 (biphenotypic myelomonocytic leukemia, ATCC® CRL-9591™), KG-1 (acute myeloid leukemia, ATCC® CCL-246™) using a vital stain AlamarBlue (ThermoFisher, #DAL1100). The cells were grown in RPMI-1640 (PanEco, #C330p) medium with addition of 10% FBS (Gibco, #16140-071); washed and resuspended in culture medium with 10% FBS (Gibco, #16140-071) in 96-well culture plates (Corning, #3599) with ≈10×10^3 cells in […] of medium per well. The compounds in question were dissolved in DMSO and diluted with a medium with 10% FBS (Gibco, #16140-071) to a final concentration ranging from 0 to 100 μM. […] of diluted compounds were then added to each well (final DMSO concentration was less than 1%) and incubated under 5% CO2 atmosphere at 37° C. for 120 h. After incubating, 15 μL/well of AlamarBlue (ThermoFisher, #DAL1100) reagent was added, contents of plates were mixed in an orbital shaker (Biosan, Latvia) and further incubated for 3-5 h at 37° C. under 5% CO2 atmosphere. Number of living cells was estimated using a microplate spectrophotometer (Tecan Infinite M200Pro, Switzerland) measuring fluorescent signal at the excitation wavelength (λEx) of 540 nm and emission wavelength (λEm) of 590 nm.
IC50 values were calculated using Magellan 7.2 software (Tecan, Switzerland) approximating experimental points by four-parameter logistic model with the optimization by Levenberg-Marquardt (Table 6).

CDK8/Cyclin C, sequence (P49336 whole entry): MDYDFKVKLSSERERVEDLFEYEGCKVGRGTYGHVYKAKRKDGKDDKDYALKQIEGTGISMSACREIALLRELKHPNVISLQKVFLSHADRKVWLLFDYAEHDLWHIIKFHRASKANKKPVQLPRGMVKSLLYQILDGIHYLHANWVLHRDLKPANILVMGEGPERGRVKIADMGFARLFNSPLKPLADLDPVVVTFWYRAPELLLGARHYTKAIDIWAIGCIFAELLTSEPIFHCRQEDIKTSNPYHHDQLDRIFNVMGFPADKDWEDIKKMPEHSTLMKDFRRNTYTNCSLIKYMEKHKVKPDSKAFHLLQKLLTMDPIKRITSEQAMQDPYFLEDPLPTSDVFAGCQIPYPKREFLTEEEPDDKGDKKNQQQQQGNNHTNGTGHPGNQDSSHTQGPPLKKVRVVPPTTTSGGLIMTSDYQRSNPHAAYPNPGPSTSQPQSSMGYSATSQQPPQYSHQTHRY
CDK8/Cyclin C, sequence (P24863 whole entry partner): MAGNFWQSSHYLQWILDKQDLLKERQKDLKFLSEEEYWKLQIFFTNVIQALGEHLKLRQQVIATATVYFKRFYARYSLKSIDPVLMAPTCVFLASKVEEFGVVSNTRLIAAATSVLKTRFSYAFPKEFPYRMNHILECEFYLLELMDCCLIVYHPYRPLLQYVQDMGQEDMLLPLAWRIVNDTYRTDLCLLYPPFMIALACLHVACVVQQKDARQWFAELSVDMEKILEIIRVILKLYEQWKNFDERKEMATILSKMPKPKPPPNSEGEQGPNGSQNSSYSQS

microsomal CLint at 10 μM [1] [µL/min/mg]	IC50 (CDK8/Cyclin C) [nM]	IC50 (MV4-11 cells) [nM]	Structure (SMILES)
1.1	1.63	3.4	COCCn1cc(-c2ccc(-c3cnc(N)c4ncc(C(=O)NCC5CC5)cc34)cc2)cn1 [Compound 3.45, 8-amino-N-(cyclopropylmethyl)-5-(4-(1-(2-methoxyethyl)-1H-pyrazole-4-yl)phenyl)-1,7-naphthyridine-3-carboxamide]
2.5	1.1	3.9	COCCn1cc(-c2ccc(-c3cnc(N)c4ncc(C(=O)NC5CC5)cc34)cc2)cn1 [Compound 3.48]
2.4	0.96	0.9	CN(C)C(=O)Cn1cc(-c2ccc(-c3cnc(N)c4ncc(C(=O)N5CCC5)cc34)cc2)cn1 [Compound 3.52, 2-(4-(4-(8-amino-3-(azetidine-1-carbonyl)-1,7-naphthyridine-5-yl)phenyl)-1H-pyrazole-1-yl)-N,N-dimethylacetamide]
